Experimental data reported in publication PMC8405639, “2-Carba-lysophosphatidic acid is a novel β-lysophosphatidic acid analogue with high potential for lysophosphatidic acid receptor activation and autotaxin inhibition” (Scientific Reports, 2021).
pEC50: −log10 of the molar value.

Columns and labels:
hLPA1 = target: T1, hLPA1 (Homo sapiens, UniProt Q92633); assay: TGFα-shedding assay, LPA1; format: cell-based; settings: 293A cells, AP-TGFα release; for pEC50: 1 h; for Emax: read-out: Emax ± SEM hLPA1 (converted)
T1 construct: expressed in transfected cells; host or cells: 293A cells
T1 sequence (Q92633 whole entry): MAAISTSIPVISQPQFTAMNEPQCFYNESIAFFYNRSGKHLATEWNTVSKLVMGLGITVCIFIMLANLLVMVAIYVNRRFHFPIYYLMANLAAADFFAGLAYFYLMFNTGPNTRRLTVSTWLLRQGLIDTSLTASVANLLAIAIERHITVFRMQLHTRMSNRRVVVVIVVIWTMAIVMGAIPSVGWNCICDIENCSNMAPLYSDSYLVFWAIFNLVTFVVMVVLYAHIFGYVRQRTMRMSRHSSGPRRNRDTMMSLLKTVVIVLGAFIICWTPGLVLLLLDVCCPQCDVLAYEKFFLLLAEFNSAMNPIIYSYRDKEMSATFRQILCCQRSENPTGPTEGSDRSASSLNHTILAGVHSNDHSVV
Procedure: Figure 4 Agonistic activity of 2-carba-lysophosphatidic acid (2carbaLPA) and cyclic phosphatidic acid (cPA) analogues toward six lysophosphatidic acid (LPA) receptors. 293A cells expressing LPA receptors were stimulated with the indicated concentration of LPA, 2carbaLPA, and cPA analogues. Receptor-specific alkaline phosphatase-tagged transforming growth factor-α release was calculated by subtracting the responses in the empty vector-transfected cells from those in the receptor-expressing cells. Data are represented as standard error of the mean of three independent replicates.
293A cells (Life Technologies, Tokyo, Japan) were cultured in DMEM (Nissui Pharmaceutical, Tokyo, Japan) supplemented with 10% foetal calf serum (Gibco, Waltham, MA, USA) in an incubator at 37 °C and 5% CO2. This assay was conducted according to a modified version of a method described previously. To improve signal detection, cells for the analysis of LPA1, LPA2, LPA4, and LPA5 were transfected with Gα-chimeric proteins, whereas those for LPA4, LPA5, LPA6 analysis were treated with the LPA1–3 antagonist Ki16425. The cells were co-transfected with vectors-expressing human LPA1–6, alkaline phosphatase-tagged TGFα (AP-TGFα). As negative controls, cells transfected with an empty vector instead of the receptor-expressing vector were used. After 24 h, the cells were resuspended in Hank’s balanced salt solution (HBSS), seeded in 96-well plates, and stimulated with cPA analogues administered at tenfold concentration of the final concentration. The cPA analogues were diluted with HBSS, 0.01% protease and fatty acid-free BSA (SERVA Electrophoresis GmbH, Heidelberg, Germany). Cells for LPA4, LPA5, and LPA6 analysis were treated with Ki16425 (final concentration: 10 μM), 5 min before treatment with the cPA analogues. After incubation for 1 h at 37 °C, 80 µL of the supernatant was transferred to fresh 96-well plates. An equal volume of 1 mM p-NPP solution [120 mM Tris–HCl (pH 9.5), 40 mM NaCl, and 10 mM MgCl2] was added to both the supernatant and the cells. Alkaline phosphatase activity was calculated by measuring absorbance at 405 nm using the Cytation 3 plate reader (BioTek, Winooski, VT, USA).

human recombinant ATX = target: T2, human recombinant ATX (Homo sapiens, UniProt Q13822); assay: Hydrolysis of cPA analogues by ATX (LC-QqQ); format: biochemical; settings: substrate 10 µM, ATX 50 nM, 37 °C, time-dependent
T2 construct: purchased Cayman Chemical
Procedure: Analyses of LPA from cPA, 2carbaLPA from 2ccPA, and 3carbaLPA from 3ccPA were performed using LC-QqQ as per methods described previously. cPA 18:1, or 2ccPA 18:1 and 3ccPA 18:1 mixture as substrate (10 μM each) were incubated at 37 °C for 2 h with human recombinant ATX (final concentration: 50 nM) and subjected to LC-QqQ. 2carbaLPA and 3carba LPA were both detected in the negative ion mode with selected reaction monitoring (SRM) of the transition from m/z 433.27 to m/z 151.02. To separate α-LPA and the predicted β-LPA or 2carbaLPA and 3carbaLPA, LC method was performed as per previously described protocols with some modifications. Briefly, the UHPLC PEEK Inertsil ODS-3 C18 column (3 µm, 2.1 × 150 mm; GL Sciences, Tokyo, Japan) was used and the compounds were eluted with a gradient solvent system: solvent A (5 mM ammonium formate in water containing 0.0096% formic acid, pH 4.0), solvent B (5 mM ammonium formate in 95% acetonitrile/5% water containing 1.16% formic acid, pH 4.0). The analytical procedure commenced with solvent B 55% for 10 min, followed by a linear gradient 85% for 40 min that was maintained at 85% for 15 min. […] The flow rate was 0.2 mL/min at a column temperature of 40 ℃. The injection volume was 10 µL/sample.
Supplementary Figure S4. Lysophosphatidic acid (LPA) produced from cyclic phosphatidic acid (cPA), 2-carba-lysophosphatidic acid (2carbaLPA) produced from 2-carba-cyclic phosphatidic acid (2ccPA) and 3-carba-lysophosphatidic acid (3carbaLPA) produced from 3-carba-cyclic phosphatidic acid (3ccPA) by autotaxin (ATX). (a) cPA 16:0, (b) 2ccPA or (c) 3ccPA (final concentration: 10 µM each) was incubated with or without human recombinant ATX (50 nM final concentration) at 37°C. The amount of produced (a) LPA 16:0, (b) 2carbaLPA or (c) 3carbaLPA was detected using liquid chromatography with tandem mass spectrometry (LC-QqQ) and presented as peak area (counts). Data are represented as mean ± standard deviation of experiments conducted in duplicate. […]

| SMILES | pEC50 (hLPA1) | Emax (hLPA1) | Hydrolysis by ATX (human recombinant ATX) |
| --- | --- | --- | --- |
| CCCCCCCC/C=C\CCCCCCCC(=O)OCC(CO)CP(=O)(O)O (stereo not shown) [2carbaLPA 18:1, 2-carba-lysophosphatidic acid] | 7.26 | 27% | – |
| CCCCCCCC/C=C\CCCCCCCC(=O)OCC1COP(=O)(O)C1 (stereo not shown) [2ccPA 18:1, 2-carba-cyclic phosphatidic acid] | 6.00 | 20.6% | 2ccPA to 2carbaLPA |
| CCCCCCCC/C=C\CCCCCCCC(=O)OC[C@@H](O)CCP(=O)(O)O [3carba LPA 18:1, 3-carba-lysophosphatidic acid] | 7.96 | 26.9% | – |
| CCCCCCCC/C=C\CCCCCCCC(=O)OC[C@@H]1CCP(=O)(O)O1 [3ccPA 18:1, 3-carba-cyclic phosphatidic acid] | 6.43 | 26.9% | hydrolysed to 3carbaLPA by ATX |
| CCCCCCCC/C=C\CCCCCCCC(=O)OC[C@@H]1COP(=O)(O)O1 [cPA 18:1, 1-Oleoyl-cPA] | 6.34 | 24.1% | hydrolyses cPA to LPA |
